Active and inactive are the calls of the source. The calls are words filed in the database; no cut-off is given here.

From ChEMBL document CHEMBL3632471, “Inhibitory effects of compounds from Styrax obassia on NO production” (Bioorg Med Chem Lett, 2015) come the findings set out here.

The subject of series [1] is RAW264.7. Nature of the series: Antiinflammatory activity in mouse RAW264.7 cells assessed as inhibition of LPS-induced NO production at 3 to 30 ug/ml after 24 hrs by Griess reaction. Format: functional.
The test system of series [2] is RAW264.7. Nature of the series: Antiinflammatory activity in mouse RAW264.7 cells assessed as inhibition of LPS-induced NO production at 30 ug/ml after 24 hrs by Griess reaction. In kind it is functional, cell-based. In general terms: Griess reagent forms a coloured azo dye with nitrite.
Series [3] is described as follows: (§1) Cytotoxicity against mouse RAW264.7 cells assessed as cell viability at 3 to 30 ug/ml after 24 hrs by MTT assay. To be noted: RAW264.7 cells, read-out: Activity. In kind it is cell-based. (In general: Tetrazolium assays rely on reduction of a dye to a coloured formazan, in cell work by metabolically active cells.)
Series [4] deals with RAW264.7. Description: Antiinflammatory activity in mouse RAW264.7 cells assessed as inhibition of LPS-induced COX2 expression at 3 to 30 ug/ml after 18 hrs by Western blot analysis. Format: functional, cell-based.
Series [5] has as its system RAW264.7. Description: Antiinflammatory activity in mouse RAW264.7 cells assessed as inhibition of LPS-induced iNOS expression after 18 hrs by Western blot analysis. In kind it is functional, cell-based. In general terms: In western blotting, separated proteins are transferred to a membrane and probed.
Series [6] concerns RAW264.7. The description is as §1. Format: cell-based. Particulars: raw264.7, 24 h.

Regarding `COc1cc([C@H]2OC[C@H]3[C@@H]2CO[C@H]3c2ccc(O)c(OC)c2)ccc1O` (stereo in doubt; 11), the inhibition result in the series with RAW264.7 [1] was “inactive”. Same read-out and setting: then `COc1cc(CCCO)cc2cc(-c3ccc4c(c3)OCO4)oc12`, with “inactive”. For the molecule `COc1cc(C[C@H]2CO[C@H](c3ccc(O)c(OC)c3)[C@H]2CO)ccc1O`, in the series on RAW264.7 [1], the inhibition entry is “inactive”. On to `COc1ccc(-c2cc3cc(CCCO)cc(OC)c3o2)cc1OC`, for which the inhibition result in the series on RAW264.7 [2] was “inactive”. Take `COc1cc(C(O)CCO)cc2cc(-c3ccc4c(c3)OCO4)oc12` (centres undefined): the inhibition result in the series on RAW264.7 [1] was “inactive”.

As to `COc1cc([C@@H]2OCC3C(=O)OCC32)ccc1O` (some centres undefined), the inhibition result in the series on RAW264.7 [2] was “inactive”. Also, in series [3], the viability at 24 h was determined as 60%.

In the case of `COc1cc([C@H]2OC[C@H]3[C@@H]2CO[C@H]3c2ccc(O)c(OC)c2)ccc1O` (stereo in doubt; 12), the inhibition entry in the series with RAW264.7 [1] was “inactive”. On the same count and under the same terms, then `COc1cc(-c2oc3c(OC)cc(CCCO)cc3c2C=O)ccc1O`, with “inactive”; and `COc1cc([C@H]2OC[C@H]3[C@@H]2CO[C@@H]3c2cc(OC)c(O)c(OC)c2)cc(OC)c1O`, with “inactive”. In the case of `COc1ccc(-c2cc3cc([C@@H](O)CCO)cc(OC)c3o2)cc1OC`, in the series on RAW264.7 [2], the inhibition result is “inactive”. The inhibition result in the series with RAW264.7 [4] was “Active”. Further, the inhibition entry with RAW264.7 [5] is “Dose-dependent effect”. Moreover, the Activity entry in the series on RAW264.7 [6] is listed as “Non-toxic”.
